Like-named read-outs stand apart in the source and are kept apart here.
How the values were obtained:
[1] = background statement, cited from earlier work
[2] = solubility in water, aqueous DMSO and DMSO; type: physicochemical
[3] = thermogravimetric analysis (TGA); type: physicochemical
Description: It is known from the TGA curve that the weight loss between 30.5° C. and 150° C. corresponds to the content of crystal water in the chelated molecules.

Row | Compound | solubility in a solution of a certain acidity ([1]; acidic solution) | solubility in water ([1]; water) | solubility in DMSO ([2]; DMSO) | solubility in about 4% aqueous solution of DMSO ([2]; about 4% aqueous solution of dimethyl sulfoxide) | solubility in water ([2]; water, standing for a period of time or heating under water bath of about 45 to 50° C.) | weight loss (crystal water) ([3]; between 30.5° C. and 150° C.) [%] | product remained in the final residue (thermal stability) ([3]; final residue) [%]
1 | O=S(=O)([O-])[O-].O=S(=O)([O-])[O-].[Ce+4] [Anhydrous cerium sulfate, anhydrous cerium sulfate] | highly soluble | not highly soluble |  |  |  |  | 
2 | cerium sulfate chelated sulfur dioxide |  |  | insoluble | soluble | forms an emulsion with water, and can dissolve after standing for a period of time or heating | 11 | 72.51

Reference: patent US10899628B2, “Cerium sulfate chelated sulfur dioxide, a preparation method and a use thereof” (South China Normal University, priority 2017, dated 2021)
